Experimental data taken from US12686873B2, “Plants having increased tolerance to herbicides” (priority 2012, dated 2026).
Several values for one entry are separate records, joined by “and”; a condition that tells them apart may be missing. Identical values can stand only once.

How the values were obtained:
Assay in all cases: biochemical
[1] = biological target: wild type and amino acid substituted PPO enzyme (Amaranthus tuberculatus, UniProt Q0NZW9, L397D/R128A); conditions: IC50 (M)
[2] = biological target: wild type and amino acid substituted PPO enzyme (Amaranthus tuberculatus, UniProt Q0NZW9, F204I/F420V/L400A); conditions: IC50 (M)
[3] = biological target: wild type and amino acid substituted PPO enzyme (Amaranthus tuberculatus, UniProt Q0NZW9, F204I/F420V/F457M); conditions: IC50 (M)
[4] = biological target: wild type and amino acid substituted PPO enzyme (Amaranthus tuberculatus, UniProt Q0NZW9, F204I/F420A/F457M/L400A); conditions: IC50 (M)
[5] = biological target: wild type and amino acid substituted PPO enzyme (Amaranthus tuberculatus, UniProt Q0NZW9, F204I/F457M/T208S); conditions: IC50 (M)
[6] = biological target: wild type and amino acid substituted PPO enzyme (Amaranthus tuberculatus, UniProt Q0NZW9, F420M/L397S); conditions: IC50 (M)
[7] = biological target: wild type and amino acid substituted PPO enzyme (Amaranthus tuberculatus, UniProt Q0NZW9, F204I/F420V/F457M/L400A/T208S); conditions: IC50 (M)
[8] = biological target: wild type and amino acid substituted PPO enzyme (Amaranthus tuberculatus, UniProt Q0NZW9, F204I/L400A/T208S); conditions: IC50 (M)
[9] = biological target: wild type and amino acid substituted PPO enzyme (Amaranthus tuberculatus, UniProt Q0NZW9, F204I/L400A); conditions: IC50 (M)
[10] = biological target: wild type and amino acid substituted PPO enzyme (Amaranthus tuberculatus, UniProt Q0NZW5)
[11] = biological target: wild type and amino acid substituted PPO enzyme (Amaranthus tuberculatus, UniProt Q0NZW9, F204I/F420V/F457M/R128A); conditions: IC50 (M)
[12] = biological target: wild type and amino acid substituted PPO enzyme (Amaranthus tuberculatus, UniProt Q0NZW9, F204I/L397D/T208S); conditions: IC50 (M)
[13] = biological target: wild type and amino acid substituted PPO enzyme (Amaranthus tuberculatus, UniProt Q0NZW9, F420V/L397T); conditions: IC50 (M)
[14] = biological target: wild type and amino acid substituted PPO enzyme (Amaranthus tuberculatus, UniProt Q0NZW9, F420V/F457M/T208S); conditions: IC50 (M)
[15] = biological target: wild type and amino acid substituted PPO enzyme (Amaranthus tuberculatus, UniProt Q0NZW9, F204I/F457M/L400A/T208S); conditions: IC50 (M)
[16] = biological target: wild type and amino acid substituted PPO enzyme (Amaranthus tuberculatus, UniProt Q0NZW9, F420M/L397D); conditions: IC50 (M)
[17] = biological target: wild type and amino acid substituted PPO enzyme (Amaranthus tuberculatus, UniProt Q0NZW9, F420M/L397V); conditions: IC50 (M)
[18] = biological target: wild type and amino acid substituted PPO enzyme (Amaranthus tuberculatus, UniProt Q0NZW9, F204I/F457M); conditions: IC50 (M)
[19] = biological target: wild type and amino acid substituted PPO enzyme (Amaranthus tuberculatus, UniProt Q0NZW9, F204I/F420V/F457M/T208S); conditions: IC50 (M)
[20] = biological target: wild type and amino acid substituted PPO enzyme (Amaranthus tuberculatus, UniProt Q0NZW9, F204I/F420V/F457M/L400A/R128A); conditions: IC50 (M)
[21] = biological target: wild type and amino acid substituted PPO enzyme (Amaranthus tuberculatus, UniProt Q0NZW9, F204I/F420V/T208S); conditions: IC50 (M)
[22] = biological target: wild type and amino acid substituted PPO enzyme (Amaranthus tuberculatus, UniProt Q0NZW9, F204I/T208S); conditions: IC50 (M)
[23] = biological target: wild type and amino acid substituted PPO enzyme (Amaranthus tuberculatus, UniProt Q0NZW9, F420V/L397V); conditions: IC50 (M)
[24] = biological target: wild type and amino acid substituted PPO enzyme (Amaranthus tuberculatus, UniProt Q0NZW9, F204I/F420V); conditions: IC50 (M)
[25] = biological target: wild type and amino acid substituted PPO enzyme (Amaranthus tuberculatus, UniProt Q0NZW9, F420V/L397Q); conditions: IC50 (M)
[26] = biological target: wild type and amino acid substituted PPO enzyme (Amaranthus tuberculatus, UniProt Q0NZW9, F420V/T208S); conditions: IC50 (M)
[27] = biological target: wild type and amino acid substituted PPO enzyme (Amaranthus tuberculatus, UniProt Q0NZW9, F204I/L397D/L400A/T208S); conditions: IC50 (M)
[28] = biological target: wild type and amino acid substituted PPO enzyme (Amaranthus tuberculatus, UniProt Q0NZW9, F457M/L400A/T208S); conditions: IC50 (M)
[29] = biological target: wild type and amino acid substituted PPO enzyme (Amaranthus tuberculatus, UniProt Q0NZW9, F420V/L397C); conditions: IC50 (M)
[30] = biological target: wild type and amino acid substituted PPO enzyme (Amaranthus tuberculatus, UniProt Q0NZW9, F457M/L400A); conditions: IC50 (M)
[31] = biological target: wild type and amino acid substituted PPO enzyme (Amaranthus tuberculatus, UniProt Q0NZW9, F457M/T208S); conditions: IC50 (M)
[32] = biological target: wild type and amino acid substituted PPO enzyme (Amaranthus tuberculatus, UniProt Q0NZW9, L397D/T208S); conditions: IC50 (M)
[33] = biological target: wild type and amino acid substituted PPO enzyme (Amaranthus tuberculatus, UniProt Q0NZW9, F420M/L397C); conditions: IC50 (M)
[34] = biological target: wild type and amino acid substituted PPO enzyme (Amaranthus tuberculatus, UniProt Q0NZW9, F420V/R128A/T208S); conditions: IC50 (M)
[35] = biological target: wild type and amino acid substituted PPO enzyme (Amaranthus tuberculatus, UniProt Q0NZW9, F420V/F457M); conditions: IC50 (M)
[36] = biological target: wild type and amino acid substituted PPO enzyme (Amaranthus tuberculatus, UniProt Q0NZW9, F420M/L397A); conditions: IC50 (M)
[37] = biological target: wild type and amino acid substituted PPO enzyme (Amaranthus tuberculatus, UniProt Q0NZW9, F420V/L397S); conditions: IC50 (M)

Sequence of wild type and amino acid substituted PPO enzyme (Amaranthus tuberculatus, UniProt Q0NZW9, F204I/F457M/T208S) (Q0NZW9 1-534 F204I/T208S/F457M): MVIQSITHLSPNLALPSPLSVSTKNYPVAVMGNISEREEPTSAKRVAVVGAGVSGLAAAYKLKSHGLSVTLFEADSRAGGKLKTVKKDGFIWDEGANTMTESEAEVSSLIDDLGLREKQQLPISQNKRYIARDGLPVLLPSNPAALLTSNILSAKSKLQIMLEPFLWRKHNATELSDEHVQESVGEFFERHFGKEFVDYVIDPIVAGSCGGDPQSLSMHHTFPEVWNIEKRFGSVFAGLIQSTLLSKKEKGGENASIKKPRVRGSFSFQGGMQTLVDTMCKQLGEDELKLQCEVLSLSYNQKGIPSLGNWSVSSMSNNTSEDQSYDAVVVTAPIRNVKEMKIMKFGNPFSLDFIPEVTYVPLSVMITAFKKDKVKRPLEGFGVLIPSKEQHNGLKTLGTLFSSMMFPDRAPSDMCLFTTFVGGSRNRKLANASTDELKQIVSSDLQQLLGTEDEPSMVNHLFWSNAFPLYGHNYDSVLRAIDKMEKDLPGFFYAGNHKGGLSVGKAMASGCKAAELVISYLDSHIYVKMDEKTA
Sequence of wild type and amino acid substituted PPO enzyme (Amaranthus tuberculatus, UniProt Q0NZW9, F204I/T208S) (Q0NZW9 1-534 F204I/T208S): as the sequence (Q0NZW9 1-534 F204I/T208S/F457M) above, with M457F counted along it
Sequence of wild type and amino acid substituted PPO enzyme (Amaranthus tuberculatus, UniProt Q0NZW9, F420V/L397Q) (Q0NZW9 1-534 L397Q/F420V): as the sequence (Q0NZW9 1-534 F204I/T208S/F457M) above, with I204F, S208T, L397Q, F420V, M457F counted along it
Sequence of wild type and amino acid substituted PPO enzyme (Amaranthus tuberculatus, UniProt Q0NZW9, F420V/R128A/T208S) (Q0NZW9 1-534 R128A/T208S/F420V): as the sequence (Q0NZW9 1-534 F204I/T208S/F457M) above, with R128A, I204F, F420V, M457F counted along it
Sequence of wild type and amino acid substituted PPO enzyme (Amaranthus tuberculatus, UniProt Q0NZW9, L397D/T208S) (Q0NZW9 1-534 T208S/L397D): as the sequence (Q0NZW9 1-534 F204I/T208S/F457M) above, with I204F, L397D, M457F counted along it
Sequence of wild type and amino acid substituted PPO enzyme (Amaranthus tuberculatus, UniProt Q0NZW5) (Q0NZW5 entry or part of it): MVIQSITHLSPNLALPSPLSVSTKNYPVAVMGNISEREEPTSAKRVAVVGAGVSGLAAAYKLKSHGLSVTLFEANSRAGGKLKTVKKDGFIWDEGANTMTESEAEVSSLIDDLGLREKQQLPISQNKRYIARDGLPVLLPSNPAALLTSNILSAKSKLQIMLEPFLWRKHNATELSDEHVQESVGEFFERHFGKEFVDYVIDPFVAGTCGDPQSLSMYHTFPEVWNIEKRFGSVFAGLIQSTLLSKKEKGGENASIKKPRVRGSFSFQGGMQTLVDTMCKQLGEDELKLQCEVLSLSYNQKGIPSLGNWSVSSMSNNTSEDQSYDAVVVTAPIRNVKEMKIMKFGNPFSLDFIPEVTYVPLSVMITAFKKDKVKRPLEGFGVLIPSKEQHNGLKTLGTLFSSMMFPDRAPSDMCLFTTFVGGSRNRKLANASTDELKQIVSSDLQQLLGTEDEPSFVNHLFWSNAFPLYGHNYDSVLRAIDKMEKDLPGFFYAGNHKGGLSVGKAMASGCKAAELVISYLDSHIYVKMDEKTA
Sequence of wild type and amino acid substituted PPO enzyme (Amaranthus tuberculatus, UniProt Q0NZW9, F457M/T208S) (Q0NZW9 1-534 T208S/F457M): as the sequence (Q0NZW9 1-534 F204I/T208S/F457M) above, with I204F counted along it
Sequence of wild type and amino acid substituted PPO enzyme (Amaranthus tuberculatus, UniProt Q0NZW9, F420M/L397D) (Q0NZW9 1-534 L397D/F420M): as the sequence (Q0NZW9 1-534 F204I/T208S/F457M) above, with I204F, S208T, L397D, F420M, M457F counted along it
Sequence of wild type and amino acid substituted PPO enzyme (Amaranthus tuberculatus, UniProt Q0NZW9, F420V/T208S) (Q0NZW9 1-534 T208S/F420V): as the sequence (Q0NZW9 1-534 F204I/T208S/F457M) above, with I204F, F420V, M457F counted along it

C#CCN1C(=O)C(F)(F)Oc2cc(F)c(-n3c(=O)n(C)c(=S)n(C)c3=O)cc21
IC50 [1]: 5.9e-09 M
IC50 [2]: 8.23e-08 M
IC50 [3]: 2.1e-09 M
IC50 [4]: 3.69e-08 M
IC50 [5]: 4.21e-11 M and 1.7e-10 M
IC50 [6]: 3.33e-09 M
IC50 [7]: 9.24e-08 M
IC50 [8]: 2.64e-11 M
IC50 [9]: 4.57e-11 M
IC50 [10]: 2.12 nM
IC50 [11]: 4.63e-08 M
IC50 [12]: 5.52e-11 M
IC50 [13]: 1.31e-08 M
IC50 [14]: 3.41e-09 M
IC50 [15]: 2.88e-11 M
IC50 [16]: 2.95e-08 M
IC50 [17]: 1.05e-09 M
IC50 [18]: 7.52e-11 M
IC50 [19]: 4.72e-09 M
IC50 [20]: 4.05e-07 M
IC50 [21]: 3.87e-09 M
IC50 [22]: 1.29e-10 M
IC50 [23]: 1.21e-08 M
IC50 [24]: 4.69e-09 M
IC50 [25]: 1.01e-07 M
IC50 [26]: 2.34e-09 M
IC50 [27]: 2.38e-09 M
IC50 [28]: 9.68e-12 M
IC50 [29]: 5.54e-08 M
IC50 [30]: 1.35e-11 M
IC50 [31]: 1.95e-10 M
IC50 [32]: 1.25e-10 M
IC50 [33]: 1.79e-09 M
IC50 [34]: 1.25e-08 M
IC50 [35]: 1.02e-09 M
IC50 [36]: 4.53e-09 M
IC50 [37]: 4.26e-08 M

CC(C)N(C)S(=O)(=O)NC(=O)c1cc(-n2c(=O)cc(C(F)(F)F)n(C)c2=O)c(F)cc1Cl [saflufenacil]
IC50 [1]: ≥ 1e-05 M
IC50 [5]: 5.11e-11 M
IC50 [10]: 1600 nM
IC50 [16]: > 1e-05 M
IC50 [18]: 1.89e-11 M
IC50 [22]: 5.89e-11 M
IC50 [25]: > 1e-05 M
IC50 [26]: 8.48e-07 M
IC50 [31]: 1.02e-10 M
IC50 [32]: 4.08e-07 M
IC50 [34]: > 1e-05 M
